Results reported in patent US8293253B2, “Compositions for controlled delivery of pharmaceutically active compounds” (IDEXX Laboratories, Inc., priority 2004, dated 2012).

Assay: Dissolution of AMP alone in organic solvent
Assay type: physicochemical
Source text: (§1) […] […] 1 eq. of a phosphorylated nucleotide such as adefovir can be substituted for each eq. of AMP.
as §1

Nc1ncnc2c1ncn2[C@@H]1O[C@H](COP(=O)(O)O)[C@@H](O)[C@H]1O [AMP, Adenosine monophosphate]
Dissolution of AMP alone in N-methyl pyrrolidone (0.5 g in 10 mL of N-methyl pyrrolidone, absence of tyrosine butyrate): will not dissolve
Dissolution of AMP alone in glycerol formal (1 g in 10 mL of glycerol formal, absence of isoleucine butyrate): will not dissolve
